US20070270382A1, “Composition for Protecting Skin” (priority 2003, published 2007)

Experiments:
[1] = test system: hairless mice; assay: Photoaging inhibitory effect of sphingomyelin (animal test, UV irradiation); assay type: in vivo
[2] = test system: skin wrinkles; assay: Skin wrinkle improving effect: wrinkles adjacent to eyes observed using a Charm View; assay type: in vivo, human; conditions: four persons having a weak skin barrier function; before and after taking sphingomyelin
Procedure: A capsule containing sphingomyelin 50 mg, phosphatidylserine 10 mg and gamma-linoleic acid 12.5 mg was used as a test material. Two capsules per one time were taken two times (morning and evening) a day. That is, four capsules were taken per a day and a medication period was three weeks. […] Four persons having a weak skin barrier function of the 21 examinees were selected and their skin states were measured before and after taking sphingomyelin.

[3] = test system: skin barrier; assay: Skin barrier function improving effect: TEWL repair after tape stripping, before and after taking sphingomyelin; assay type: in vivo, human; conditions: for difference in TEWL, taking vs not-taking sphingomyelin (in words): 2 and 4 days
Procedure: In this Example, a person's sebum film was artificially injured to increase an amount of water loss. After that, it was confirmed that there was a difference of repair degrees of water loss before and after taking sphingomyelin. It was also confirmed that how much skin wrinkles due to the water loss were improved by taking sphingomyelin. A capsule containing sphingomyelin 50 mg, phosphatidylserine 10 mg and gamma-linoleic acid 12.5 mg was used as a test material. Two capsules per one time were taken two times (morning and evening) a day. That is, four capsules were taken per a day and a medication period was three weeks. Tests were carried out for 18 males and 3 females and the testing method was as follows. An amount of water loss of skin was measured for an inner region of an arm using a TEWL meter TM210. A skin wound was induced by stripping off corneum with a tape many times and increasing a TEWL value (normally, around 6˜10) to 30 or more. In other words, after inducing an injury of a skin barrier using a tape, repair aspects of TEWL values in the injured region before and after taking sphingomyelin were compared and thus a skin barrier restoring effect of sphingomyeling was confirmed. Skin barrier function in a normal state was checked by measuring TEWL in a forearm from 21 persons. A TEWL value was increased to 30 or more after tape stripping and then TEWL was measured every other day. TEWL in a normal state was measured together with a measurement of TEWL in an injured region because TEWL in a normal state can be different according to conditions of temperature, humidity and weather, etc. Meanwhile, a same test was carried out to measure a medication effect of sphingomyelin and TEWL of skin was measured while taking sphingomyelin two times a day.

In the case of Sphingomyelin, the “state of skin (photographs, FIGS. 2 to 4)” value ([1]; UV irradiation+SM application vs UV only or UV+Vehicle, after completion of the test) is reported as “the skin was extremely injured, compared to the case that the substrate containing sphingomyelin was applied after UV irradiation”, the “skin barrier function (FIG. 1)” value ([1]; UV irradiation+SM application, 0.5% in 1,3-butyleneglycol/distilled water/ethanol 5:3:2, UV three times per week for three months, vs UV only or UV+Vehicle) is reported as “the skin barrier was not easily damaged and remained in a level of the early stage of the test” and the “skin barrier function (FIG. 1)” value ([1]; UV irradiation+SM oral administration) is reported as “skin barrier protecting effect of sphingomyelin against ultraviolet was exhibited”. For the same substance, the “skin histological test (FIG. 5): epidermis and dermis” value ([1]; sphingomyelin applied after UV irradiation vs only UV irradiation) was “the epidermis and dermis thereof were similar to those of at the early stage of the test”, the “wrinkle improving effect (FIG. 14)” value [2] was “had a wrinkle improving effect” and the “difference in TEWL, taking vs not-taking sphingomyelin (in words)” value ([3]; 21 persons (Table 3)) was “no significant difference”. For the same substance, the “difference in TEWL, taking vs not-taking sphingomyelin (in words)” value ([3]; weak skin barrier function (Table 5)) was “no significant difference”, the “difference of TEWL decreases, taking vs not-taking sphingomyelin (in words)” value ([3]; 6 days, weak skin barrier function (Table 5)) was “significant difference of TEWL decreases” and the “% TEWL, taking sphingomyelin” value ([3]; day 0, 21 persons, capsule with sphingomyelin 50 mg, phosphatidylserine 10 mg, gamma-linoleic acid 12.5 mg, four capsules per day) was 100 % TEWL. The “% TEWL, taking sphingomyelin” value ([3]; day 0, persons with weak skin barrier function (high TEWL in normal region)) was 100 % TEWL, the “% TEWL, taking sphingomyelin” value ([3]; day 0, six examinees with relatively high decrease rate of TEWL) was 100 % TEWL and the “% TEWL, taking sphingomyelin” value ([3]; day 2, 21 persons, oral capsules) was 43.2 ± 11.5 % TEWL. The “% TEWL, taking sphingomyelin” value ([3]; day 2, persons with weak skin barrier function) was 36.9 ± 18.9 % TEWL, the “% TEWL, taking sphingomyelin” value ([3]; day 2, six examinees with relatively high decrease rate of TEWL) was 45.7 ± 10.7 % TEWL and the “% TEWL, taking sphingomyelin” value ([3]; day 4, 21 persons, oral capsules) was 23.1 ± 8.1 % TEWL. For the same substance, the “% TEWL, taking sphingomyelin” value ([3]; day 4, persons with weak skin barrier function) was 19.8 ± 8 % TEWL, the “% TEWL, taking sphingomyelin” value ([3]; day 4, six examinees with relatively high decrease rate of TEWL) was 23.7 ± 7.5 % TEWL and the “% TEWL, taking sphingomyelin” value ([3]; day 6, 21 persons, oral capsules) was 14.8 ± 7 % TEWL. The “% TEWL, taking sphingomyelin” value ([3]; day 6, persons with weak skin barrier function) was 9.7 ± 5.8 % TEWL, the “% TEWL, taking sphingomyelin” value ([3]; day 6, six examinees with relatively high decrease rate of TEWL) was 7.4 ± 4.3 % TEWL and the “difference in TEWL decrease, taking vs not-taking sphingomyelin (in words)” value ([3]; six days, 21 persons (FIG. 11), paired t-test) was “significant difference in a TEWL decrease”.
